# In article PMC5895803, “Inhibition of cancer stem cell like cells by a synthetic retinoid” (Nature Communications, 2018):
# Assays:
# B16-F1 TRCs [1] = assay: Cell cycle analysis (BrdU flow cytometry), S phase of TRCs; assay type: cell-based, murine; conditions: 10 μM, 24 hours
# Method: For Annexin-V and PI staining to quantify cell apoptosis, treated TRCs were isolated from 3D fibrin gel by using 5 mg mL^−1 Dispase II (Sigma), cells were labeled with FITC-conjugated Annexin-V and PI according to the manufacturer’s instruction (Biolegend). Data were acquired on a BD Cantoll (BD biosciences) and analyzed with FlowJo software. For BrdU staining to quantify cell proliferation, cells were labeled with FITC-conjugated anti-BrdU antibody according to the manufacturer’s instruction (FITC BrdU Flow Kit, BD Biosciences) and then data were acquired on an Accuri C6 (BD Biosciences) and analyzed with BD Accuri C6 software.
# Supplementary Figure 13. WYC-209 blocks S phase of TRCs. Different cancer cell lines cultured in 3D soft fibrin gel on day 0, then treated with 0.1, 1, or 10 μM WYC-209, WYC-209A, WYC-209B on day 4, isolated cells after 24 hours and labeled with FITC-conjugated anti-BrdU antibody for cell cycle analysis, 10 μM ATRA and Tazarotne as positive controls. (a) Representative images of flow cytometry in different conditions. (b) Quantification of S phase ratio in different conditions. Mean ± s.e.m.; n=3 independent experiments; * P<0.05; ** P<0.01; *** P<0.001 (Student’s t-test).
# (1 picture or pasted object on this page, not shown here)
# B16-F1 TRCs [2] = assay: Colony growth of B16-F1 TRCs in 90-Pa 3D soft fibrin gels; assay type: cell-based, murine; conditions: for inhibition at 10 µM: B16-F1, 10 μM; for Rescue of TRC growth from inhibitory effects of Tazarotene by pretreatment: pretreated 3 h before 0.1 or 1 μM Tazarotene; for Rescue of TRC growth from inhibitory effects of WYC-209 by pretreatment: pretreated 3 h before 0.1 or 1 μM WYC-209, day 5
# [3] = system: human malignant melanoma A375; assay: Colony growth of A375 TRCs in 90-Pa fibrin gels; assay type: cell-based; conditions: pretreated 3 h before 0.1 or 1 μM WYC-209, day 7
# Method: Salmon fibrinogen and thrombin were purchased from Reagent Proteins (CA, USA). 3D fibrin gels were prepared as described previously[5],[6]. In brief, fibrinogen was diluted into 2 mg mL^−1 with T7 buffer (pH 7.4, 50 mM Tris, 150 mM NaCl). Cells were detached from 2D rigid dishes and cell density was adjusted to 10^4 cells per mL. Fibrinogen and cell solution mixture were made by mixing the same volume of fibrinogen solution and cell solution, resulting in 1 mg mL^−1 fibrinogen and 5000 cells per mL in the mixture fibrin gels. A volume of 50 μL cell/fibrinogen mixture was seeded into each well of 96-well plate and mixed well with pre-added 1 μL thrombin (100 U mL^−1). The cell culture plate was then incubated in 37 °C cell culture incubator for 10 min. Finally, 200 μL of DMEM medium containing 10% FBS and antibiotics was added.
# CYP 2C19 = biological target: T1, CYP 2C19 (Homo sapiens, UniProt P33261); assay: Cytochromes enzyme inhibition assay, human liver microsomes; assay type: in vitro ADME; conditions: substrate S-mephenytoin (35 µM)
# T1 construct: from tissue; host or cells: human liver microsomes
# melanoma TRCs = system: melanoma TRCs; parameters: method as in PMID 25099074; conditions: high concentrations (1 and 100 μM); cited from earlier work
# [4] = parameters: method as in doi:10.1016/j.jaad.2003.11.002; conditions: cited from earlier work
# Water solubility = conditions: pH 7.4, aqueous buffer, kinetic from dmso stock
# mouse RARs = biological target: mouse RARs; parameters: method as in earlier work; conditions: ref 1 (supplement); read-out: published Kd values to mouse RARs; cited from earlier work
# [5] = Mus musculus, treated on day 0, day 5
# T1 sequence (P33261 whole entry): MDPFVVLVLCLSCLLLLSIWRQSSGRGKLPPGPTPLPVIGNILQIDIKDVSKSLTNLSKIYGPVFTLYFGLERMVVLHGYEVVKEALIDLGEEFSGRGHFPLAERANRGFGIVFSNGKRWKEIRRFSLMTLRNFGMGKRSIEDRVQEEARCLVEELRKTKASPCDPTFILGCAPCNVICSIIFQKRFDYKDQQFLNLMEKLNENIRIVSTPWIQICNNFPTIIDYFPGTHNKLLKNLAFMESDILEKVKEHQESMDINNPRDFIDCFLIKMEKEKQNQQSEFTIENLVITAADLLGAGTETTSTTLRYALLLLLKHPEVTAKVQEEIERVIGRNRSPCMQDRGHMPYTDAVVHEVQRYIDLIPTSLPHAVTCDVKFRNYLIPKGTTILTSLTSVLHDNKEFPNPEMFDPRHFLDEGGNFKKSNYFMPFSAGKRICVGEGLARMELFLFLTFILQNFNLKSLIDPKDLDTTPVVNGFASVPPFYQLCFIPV
compound,measurement,setting,value
"CCOC(=O)c1ccc(C#Cc2ccc3c(c2)C(C)(C)CCS3)nc1 [Tazarotene, reference compound]",Decrease of S phase of TRCs,B16-F1 TRCs [1],~ 45%
same,Growth inhibition at 10 μM,"B16-F1 TRCs [2]; 10 μM, treated on day 0, day 5, 10 µM",71%
same,inhibition at 10 µM,B16-F1 TRCs [2]; [5],71.2%
same,IC50,"B16-F1 TRCs [2]; Mus musculus, B16-F1 in 90-Pa fibrin gels, treated on day 0, colony size on day 5",1720 nM
"COC(=O)CC[C@H](NC(=O)[C@H](CC(=O)OC)NC(=O)OCc1ccccc1)C(=O)N[C@H](C(=O)N[C@@H](CC(=O)OC)C(=O)CF)C(C)C [z-DEVD-FMK, reference compound]",Rescue of A375 TRC growth from WYC-209 inhibition by pretreatment,[3],substantially rescued growth
same,Rescue of TRC growth from inhibitory effects of Tazarotene by pretreatment,B16-F1 TRCs [2],could not rescue growth
same,Rescue of TRC growth from inhibitory effects of WYC-209 by pretreatment,B16-F1 TRCs [2],substantially rescued growth
"COc1ccc2[nH]c([S+]([O-])Cc3ncc(C)c(OC)c3C)nc2c1 (centres unmarked) [omeprazole, reference compound]",IC50,CYP 2C19,4990 nM
"CCc1ccc(C2=CC(C)(C)Sc3ccc(C#Cc4ccc(C(=O)O)cc4)cc32)cc1 [AGN-194310, reference compound]",Rescue of TRC growth from inhibitory effects of WYC-209 by pretreatment,B16-F1 TRCs [2],rescued the TRC growth
N.N.[Cl][Pt][Cl] [cisplatin],TRCs not killed,melanoma TRCs,20–30%
"CC1(C)CC=C(c2cnc3ccccc3c2)c2cc(C(=O)Nc3ccc(C(=O)O)cc3)ccc21 [BMS195614, reference compound]",Impact of antagonist alone on TRC growth,B16-F1 TRCs [2],no impact on TRC growth
same,Rescue of TRC growth from inhibitory effects of Tazarotene by pretreatment,B16-F1 TRCs [2],rescuing effect was minimal
same,Rescue of TRC growth from inhibitory effects of WYC-209 by pretreatment,B16-F1 TRCs [2],rescued the TRC growth
CC1(C)CC[S+]([O-])c2ccc(C#Cc3ccc(C(=O)O)cn3)cc21 (centres unmarked) [AGN 190844],Activity after oxidation of the sulfur atom on Tazarotene,[4],loses its activity
COc1cccc2c1C(=O)c1c(O)c3c(c(O)c1C2=O)C[C@@](O)(C(=O)CO)C[C@@H]3O[C@H]1C[C@H](N)[C@H](O)[C@H](C)O1 [doxorubicin],TRCs not killed,melanoma TRCs,20–30%
"CC(=O)N1CCN(c2ccc(OCC3COC(Cn4ccnc4)(c4ccc(Cl)cc4Cl)O3)cc2)CC1 (centres unmarked) [Ketoconazole, reference compound]",solubility at 1 h,Water solubility; PBS (pH 7.4),49.3 µM
"COCCOCOc1cc2ccc(-c3ccc(C(=O)O)cc3)cc2cc1C12CC3CC(CC(C3)C1)C2 [CD2665, reference compound]",Impact of antagonist alone on TRC growth,B16-F1 TRCs [2],no impact on TRC growth
same,Rescue of TRC growth from inhibitory effects of Tazarotene by pretreatment,B16-F1 TRCs [2],rescuing effect was minimal
same,Rescue of TRC growth from inhibitory effects of WYC-209 by pretreatment,B16-F1 TRCs [2],rescued the TRC growth
"CC1=C(/C=C/C(C)=C/C=C/C(C)=C/C(=O)O)C(C)(C)CCC1 [ATRA, all-trans retinoic acid, reference compound]",Decrease of S phase of TRCs,B16-F1 TRCs [1],~55%
same,inhibition at 10 µM,B16-F1 TRCs [2]; [5],80%
same,Kd,mouse RARs,0.2 to 0.36 nM
"CC(C)NCC(O)COc1cccc2ccccc12 (centres unmarked) [Propranolol, reference compound]",solubility at 1 h,Water solubility,> 100 µM
